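1) Cells in 96-well plates. 2) Compound, 48 h, 5 concentrations. 3) Linear interpolation between surrounding doses. 4) Unreached endpoint = highest concentration. At the GI50, growth is halved.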 Calls of active or inactive are those of the source. Rule as the data show it: active = GI50 up to about 1.1 µM and inactive = higher.
Experiments:
Experiment in all cases: NCI anticancer screen, dose series, 48 h
K562 = test system: K562
786-0 = test system: 786-0
NCI/ADR-RES = test system: NCI/ADR-RES
HT-29 = test system: HT-29
HOP-62 = test system: HOP-62
UO-31 = test system: UO-31
MOLT-4 = test system: MOLT-4
SK-OV-3 = test system: SK-OV-3
OVCAR-3 = test system: OVCAR-3
HCT-15 = test system: HCT-15
NCI-H460 = test system: NCI-H460
SK-MEL-5 = test system: SK-MEL-5
CAKI-1 = test system: CAKI-1
SN12C = test system: SN12C
A498 = test system: A498
MDA-N = test system: MDA-N
MCF7 = test system: MCF7
T47D = test system: T47D
NCI-H522 = test system: NCI-H522
BT-549 = test system: BT-549

Structure (SMILES)	GI50 (K562)	GI50 (786-0)	GI50 (NCI/ADR-RES)	GI50 (HT-29)	GI50 (HOP-62)	GI50 (UO-31)	GI50 (MOLT-4)	GI50 (SK-OV-3)	GI50 (OVCAR-3)	GI50 (HCT-15)	GI50 (NCI-H460)	GI50 (SK-MEL-5)	GI50 (CAKI-1)	GI50 (SN12C)	GI50 (A498)	GI50 (MDA-N)	GI50 (MCF7)	GI50 (T47D)	GI50 (NCI-H522)	GI50 (BT-549)
COc1ccc(C2OC(c3ccncc3)=NN2C)cc1OC (stereo unspecified)	> 100 µM (inactive)	> 100 µM (inactive)	> 100 µM (inactive)	> 100 µM (inactive)	94.6 µM (inactive)	60.1 µM (inactive)	75.7 µM (inactive)	> 100 µM (inactive)	> 100 µM (inactive)	> 100 µM	> 100 µM (inactive)	92.5 µM (inactive)	73.3 µM (inactive)	> 100 µM (inactive)	33.5 µM (inactive)	> 100 µM (inactive)	71.3 µM (inactive)	67.1 µM (inactive)	> 100 µM (inactive)	–
O=C1O/C(=C\c2ccc(O)cc2)C(c2ccc(O)c(Cl)c2)=C1Cl	57.1 µM (inactive)	50.2 µM (inactive)	36.2 µM (inactive)	53.2 µM (inactive)	35.4 µM (inactive)	35.2 µM (inactive)	49.7 µM (inactive)	> 100 µM (inactive)	38.1 µM (inactive)	50 µM	30.3 µM (inactive)	18.5 µM (inactive)	37.2 µM (inactive)	88.9 µM (inactive)	33.6 µM (inactive)	23.5 µM (inactive)	16.6 µM (inactive)	59.7 µM (inactive)	23 µM (inactive)	–
COc1ccccc1/C=C1\S/C(=N/Nc2nc(C)c(C(C)=O)s2)NC1=O	34 µM (inactive)	29.4 µM (inactive)	43.8 µM (inactive)	42.9 µM (inactive)	81.1 µM (inactive)	37.2 µM (inactive)	35.6 µM (inactive)	74.1 µM (inactive)	26.9 µM (inactive)	–	55.7 µM (inactive)	19.7 µM (inactive)	57.3 µM (inactive)	65.9 µM (inactive)	22.8 µM (inactive)	29.9 µM (inactive)	25.6 µM (inactive)	25.6 µM (inactive)	–	–
CC(=O)N1CN2C(=O)CCC2c2ccccc21 (stereo unspecified)	> 100 µM (inactive)	> 100 µM (inactive)	> 100 µM (inactive)	> 100 µM (inactive)	> 100 µM (inactive)	> 100 µM (inactive)	> 100 µM (inactive)	> 100 µM (inactive)	> 100 µM (inactive)	> 100 µM	> 100 µM (inactive)	> 100 µM (inactive)	> 100 µM (inactive)	> 100 µM (inactive)	> 100 µM (inactive)	> 100 µM (inactive)	> 100 µM (inactive)	> 100 µM (inactive)	> 100 µM (inactive)	–
FC1C2=C(SC1(F)F)C1CCC2C1 (stereo unspecified)	> 100 µM (inactive)	> 100 µM (inactive)	> 100 µM (inactive)	> 100 µM (inactive)	–	> 100 µM (inactive)	> 100 µM (inactive)	> 100 µM (inactive)	> 100 µM (inactive)	> 100 µM	> 100 µM (inactive)	> 100 µM (inactive)	> 100 µM (inactive)	–	–	–	> 100 µM (inactive)	> 100 µM (inactive)	> 100 µM (inactive)	> 100 µM (inactive)
CC(C)OC1=C(CC2(C)OCCO2)C(=O)C12OCCO2	–	> 100 µM (inactive)	> 100 µM (inactive)	> 100 µM (inactive)	> 100 µM (inactive)	> 100 µM (inactive)	> 100 µM (inactive)	> 100 µM (inactive)	> 100 µM (inactive)	> 100 µM	> 100 µM (inactive)	> 100 µM (inactive)	> 100 µM (inactive)	> 100 µM (inactive)	> 100 µM (inactive)	–	> 100 µM (inactive)	> 100 µM (inactive)	40.4 µM (inactive)	> 100 µM (inactive)
C[n+]1cccc2ccc(OC(=O)c3ccccc3)cc21	> 100 µM (inactive)	> 100 µM (inactive)	> 100 µM (inactive)	> 100 µM (inactive)	> 100 µM (inactive)	> 100 µM (inactive)	> 100 µM (inactive)	> 100 µM (inactive)	> 100 µM (inactive)	> 100 µM	–	> 100 µM (inactive)	> 100 µM (inactive)	> 100 µM (inactive)	> 100 µM (inactive)	> 100 µM (inactive)	> 100 µM (inactive)	> 100 µM (inactive)	> 100 µM (inactive)	–
NC(=O)C(=O)n1ncc(Cl)c(Cl)c1=O	9.46 µM (inactive)	22.2 µM (inactive)	24.4 µM (inactive)	27.5 µM (inactive)	> 100 µM (inactive)	32.7 µM (inactive)	3.59 µM (inactive)	> 100 µM (inactive)	32.2 µM (inactive)	> 46.9 µM	74.8 µM (inactive)	18.3 µM (inactive)	22.8 µM (inactive)	18.6 µM (inactive)	> 72.9 µM (inactive)	> 100 µM (inactive)	57.3 µM (inactive)	> 100 µM (inactive)	7.73 µM (inactive)	–
CS(=O)(=O)OCCN(CCOS(C)(=O)=O)c1ccc(/C=N/c2cccc(Cl)c2)cc1	23.5 µM (inactive)	0.813 µM (active)	3.61 µM (inactive)	2.69 µM (inactive)	7.23 µM (inactive)	1.6 µM (inactive)	0.286 µM (active)	0.561 µM (active)	12.1 µM (inactive)	1.02 µM	0.269 µM (active)	6.43 µM (inactive)	0.239 µM (active)	1.4 µM (inactive)	5.38 µM (inactive)	–	10 µM (inactive)	18.2 µM (inactive)	0.724 µM (active)	9.98 µM (inactive)
Clc1ccc(C2ON=C(c3ccccc3)N2C23CC4CC(CC(C4)C2)C3)c(Cl)c1 (stereo unspecified)	> 10 µM (inactive)	> 10 µM (inactive)	> 10 µM (inactive)	> 10 µM (inactive)	> 10 µM (inactive)	> 10 µM (inactive)	> 10 µM (inactive)	> 10 µM (inactive)	> 10 µM (inactive)	> 10 µM	> 10 µM (inactive)	> 10 µM (inactive)	> 10 µM (inactive)	> 10 µM (inactive)	> 10 µM (inactive)	> 10 µM (inactive)	> 10 µM (inactive)	> 10 µM (inactive)	> 10 µM (inactive)	–
CC(=O)N(CCCCNC(=O)C(F)(F)F)CCCNC(=O)C(F)(F)F	> 100 µM (inactive)	> 100 µM (inactive)	> 100 µM (inactive)	> 100 µM (inactive)	> 100 µM (inactive)	> 100 µM (inactive)	> 100 µM (inactive)	> 100 µM (inactive)	> 100 µM (inactive)	> 100 µM	> 100 µM (inactive)	> 100 µM (inactive)	–	> 100 µM (inactive)	> 100 µM (inactive)	–	> 100 µM (inactive)	> 100 µM (inactive)	> 100 µM (inactive)	> 100 µM (inactive)
